The values below come from patent publication EP0356192A2, “Prevention & treatment of liver abscesses in animals” (SMITHKLINE BEECHAM CORPORATION, priority 1988, dated 1990).

In general, MIC refers to the smallest concentration in the dilution series that meets the test's criterion for growth inhibition.

Experiment [1] concerns Fusobacterium necrophorum ATCC 25286. As to the kind of experiment: MIC by agar dilution method (Wilkins-Chalgren Agar). Type of experiment: cell-based. The procedure: (§1) In this example, microbiological studies were initiated with Virginiamycin and other antibiotics so as to determine their potency in controlling liver abscesses. As Fusobacterium necrophorum has been associated with bovine liver abscesses in cattle, it was determined that microbiological studies involving this bacterium would be undertaken with representative examples of antibiotics including Virginiamycin.
(§2) The MIC's for Fusobacterium necrophorum was done by the agar dilution method. Two-fold serial dilutions of each compound was incorporated into Wilkins-Chalgren Agar plates. Each Fusobacterium necrophorum was propagated in Peptone-Yeast-Glucose broth and inoculated onto the plates with a multipoint inoculating device. The plates were incubated at 37°C in an atmosphere of 10% H₂, 5% CO₂ and 85% N₂, for 40 hours.
A general note: In agar dilution, organisms are placed on agar that contains the substance at set levels.

The subject of experiment [2] is Fusobacterium necrophorum ATCC 27852. The description is as above. The class given is cell-based. The procedure:
as §1, §2

The test system of experiment [3] is Fusobacterium necrophorum Colorado Strain. The experiment is described as above. Type of experiment: cell-based. The protocol:
as §1, §2

Experiment [4] relates to Fusobacterium necrophorum. In words: MIC of Virginiamycin and ionophores alone and combined at fixed ratios, two-fold serial dilution of a stock solution. The class given is cell-based. The settings on record: for MIC: Fusobacterium necrophorum, read-out: MIC Alone; for MIC Alone: antibiotic alone. The protocol:
In this example, microbiological studies were initiated with combinations of antibiotics from the Virginiamycin family of antibiotics and ionophore family of antibiotics so as to determine their potency in controlling liver abscesses. As Fusobacterium necrophorum has been associated with bovine liver abscess in cattle, it was determined that microbiological studies involving this bacterium would be undertaken. Since the liver abscess etiology is poorly defined, it is difficult to precisely extrapolate these studies to animal disease. […]
Virginiamycin was combined with an antibiotic from the ionophore family in a ratio expected in medicated feeds, eg. Salinomycin at 20 g/Ton and Virginamycin at 15 g/Ton have a ratio of 1.3:1. For the microbilogical studies, a stock solution was made up to contain Salinomycin and Virginiamycin in the same ratio of 1.3:1. The stock solution was serially diluted two fold. The dilutions were incubated with F. necr. The end point was the lowest concentrations antibiotics which inhibited the growth of F. necr., or MIC for minimal inhibitory concentration, eg. the MIC of Salinomycin was 5 µg/ml while that of Virginiamycin was 1 µg/ml.

Experiment [5] concerns liver abscess. As to the kind of experiment: Incidence of liver abscess at slaughter in cattle fed a ration supplemented with Virginiamycin. Type of experiment: in vivo. To be noted: for No. of Animals With Liver Abscess: ad libitum, approximately 120 days, Total Animals 197 (control 26 of 199); for No. of Animals Without Liver Abscess: Total Animals 197. The procedure: A cattle ration was prepared using the following formula: […]
The ration was supplemented with varying proportions of Virginiamycin and fed, ad libitum, to approximately 200 cattle weighing between 650 lbs. and 850 lbs. The cattle were processed according to standard procedures for the facility, individually weighed and identified. The treatments were continued until the cattle reached an approximate weight of 1100 lbs. (approximately 120 days).
Virginiamycin was added to the ration in the following amounts: Table 2
At slaughter, livers were identified with the individual animal number and scored for liver abscess after examination in the manner required by USDA. Livers were palpated and suspicious area were excised and examined for the presence of liver abscesses.

The test system of experiment [6] is Fusobacterium necrophorum (the two ATCC strains). In words: MIC of factors M and S of virginiamycin, one experiment, two ATCC strains taken together. The class given is cell-based. The settings on record: geometric mean for the two ATCC strains. The procedure: as §2
In the one experiment in which factors M and S of virginiamycin were tested, the MICs were 0.35 (geometric mean for the two ATCC strains) and greater than 32 µg/ml, respectively. Virginiamycin contains 75% of Factor M and 25% of Factor S.

[7] abbreviates: Fusobacterium necrophorum, ATCC25286, 40 h.
The mark [8] stands for this setting: Fusobacterium necrophorum, ATCC27852, 40 h.
[9] abbreviates: Fusobacterium necrophorum, 40 h.
The mark [10] stands for this setting: Ferrensinmycin : Virginiamycin, ratio 1.3:1.
Where [11] appears, read: strain ATCC 25286, 37°C, anaerobic atmosphere, 40 hours, * = geometric mean of more than one determination.
Setting [12] is: strain ATCC 27852, 37°C, anaerobic atmosphere, 40 hours, * = geometric mean of more than one determination.
Setting [13] is: Fasalocid : Virginiamycin, ratio 2:1.
Setting [14] is: Fasalocid : Virginiamycin, ratio 3:1.

In brackets after ≈: the same amount, converted by molar mass. Several values for one entry are separate records, joined by “and”; a condition that tells them apart may be missing. Identical values can stand only once. Like-named read-outs stand apart in the source and are kept apart here.

Take `CC[C@@H](C(=O)[C@@H](C)[C@@H](O)[C@H](C)[C@@H]1O[C@@H]([C@@H](CC)C(=O)O)CC[C@@H]1C)[C@H]1O[C@]2(C=C[C@@H](O)[C@]3(CC[C@@](C)([C@H]4CC[C@](O)(CC)[C@H](C)O4)O3)O2)[C@H](C)C[C@@H]1C` [Salinomycin]: the MIC in experiment [1] (setting [7]) was determined as 3.6 µg/mL (≈ 4.79 µM); in experiment [2] (setting [8]), 4 µg/mL (≈ 5.33 µM); in experiment [3] (setting [9]), 5.7 µg/mL (≈ 7.59 µM); in experiment [4] it was 5 µg/mL. For the same molecule, the “decrease in the MIC on combination” value in experiment [4] is reported as 250 fold.

With Ferrensinmycin, the “MIC Combination” value in experiment [4] (setting [10]) was found to be 0.6 µg/mL. The “MIC Alone” value in experiment [4] was determined as 0.5 µg/mL.

On to Virginiamycin, for which the “No. of Animals With Liver Abscess” value in experiment [5] (Vm 9.1 grams/ton in ration) came out at 16; in experiment [5] (Vm 22.7 grams/ton in ration), 12; in experiment [5] (Vm 45.5 grams/ton in ration) it was 6. Moreover, the “No. of Animals Without Liver Abscess” value in experiment [5] (Vm 9.1 grams/ton in ration) is recorded as 181; in experiment [5] (Vm 22.7 grams/ton in ration) it was 185; in experiment [5] (Vm 45.5 grams/ton in ration), 191. Also, the “effect on the incidence of liver abscess” value in experiment [5] (all dose groups vs control, Chi-Square Goodness of Fit) is listed as “obvious beneficial effect”. Moreover, the MIC was 0.9* µg/ml in experiment [1] (setting [11]); 1.0* µg/ml in experiment [2] (setting [12]); 1.0* µg/ml in experiment [3] (Colorado Strain, 37°C, anaerobic atmosphere, 40 hours, * = geometric mean of more than one determination). The “effectiveness compared with Tylosin” value in experiment [2] (strain ATCC 27852, from MICs) was “twice as effective as Tylosin”. For the same molecule, the “MIC Combination” value in experiment [4] (setting [13]) amounted to 1 µg/mL; in experiment [4] (setting [14]) it was 0.9 µg/mL; in experiment [4] (setting [10]), 0.5 µg/mL; in experiment [4] (Monensin : Virginiamycin, ratio 0.7:1), 0.5 µg/mL; in experiment [4] (Monensin : Virginiamycin, ratio 2:1) it was 0.01 µg/mL; in experiment [4] (Monensin : Virginiamycin, ratio 3:1), 0.7 µg/mL. In addition, the “MIC Combination” value in experiment [4] (Salinomycin : Virginiamycin, ratio 1:1) amounted to 0.7 µg/mL; in experiment [4] (Salinomycin : Virginiamycin, ratio 1.3:1), 0.02 µg/mL. In addition, the “decrease in the MIC on combination” value in experiment [4] (Salinomycin : Virginiamycin, ratio 1.3:1, vs alone) is listed as 50 fold. In addition, in experiment [4], the “MIC Alone” value was 0.7 µg/mL.

Regarding `CC[C@H]1OC(=O)C[C@@H](O)[C@H](C)[C@@H](O[C@@H]2O[C@H](C)[C@@H](O[C@H]3C[C@@](C)(O)[C@@H](O)[C@H](C)O3)[C@H](N(C)C)[C@H]2O)[C@@H](CC=O)C[C@@H](C)C(=O)/C=C/C(C)=C/[C@@H]1CO[C@@H]1O[C@H](C)[C@@H](O)[C@@H](OC)[C@H]1OC` [Tylosin], the MIC in experiment [1] (setting [7]) is 0.8 µg/mL (≈ 0.873 µM); in experiment [2] (setting [8]), 1.4 µg/mL (≈ 1.53 µM); in experiment [3] (setting [9]), 1 µg/mL (≈ 1.09 µM).

As for Virginiamycin factor M, the MIC in experiment [1] (setting [11]) is 0.5 µg/mL; in experiment [2] (setting [12]), 0.25 µg/mL; in experiment [6], 0.35 µg/mL.

Consider `CN(C)[C@@H]1C(=O)C(C(N)=O)=C(O)[C@@]2(O)C(=O)C3=C(O)c4c(O)cccc4[C@@](C)(O)[C@H]3[C@H](O)[C@@H]12` [Oxytetracyline, Oxytetracycline], for which the values for the MIC in experiment [1] (setting [7]) and in experiment [2] (setting [8]) were 0.03 µg/mL (≈ 0.0652 µM) and 0.25 µg/mL (≈ 0.543 µM), respectively.

Turning to `CN(C)[C@@H]1C(O)=C(C(N)=O)C(=O)[C@@]2(O)C(O)=C3C(=O)c4c(O)ccc(Cl)c4[C@@](C)(O)[C@H]3C[C@@H]12` [Chlortetracycline], the values for the MIC in experiment [1] (setting [7]) and in experiment [2] (setting [8]) were 0.02 µg/mL (≈ 0.0418 µM) and 0.12 µg/mL (≈ 0.251 µM), respectively.

On to `CC[C@@H](C(=O)[C@@H](C)[C@@H](O)[C@H](C)CCc1ccc(C)c(O)c1C(=O)O)[C@H]1O[C@](CC)([C@H]2CC[C@](O)(CC)[C@H](C)O2)C[C@@H]1C` [Lasalocid], for which the figures for the MIC in experiment [1] (setting [7]), in experiment [2] (setting [8]) and in experiment [3] (setting [9]) were 9.1 µg/mL (≈ 15.4 µM), 12 µg/mL (≈ 20.3 µM) and 8.5 µg/mL (≈ 14.4 µM), respectively.

For the molecule `CC[C@@H](C(=O)[C@@H](C)[C@@H](O)[C@H](C)CCc1ccc(C)c(O)c1C(=O)O)[C@H]1O[C@](CC)([C@H]2CC[C@](O)(CC)[C@H](C)O2)C[C@@H]1C` [Fasalocid], the “MIC Combination” value in experiment [4] (setting [13]) was 1 µg/mL; in experiment [4] (setting [14]), 3 µg/mL. Besides, the “MIC Alone” value in experiment [4] is 7 µg/mL and 10 µg/mL.

Take `CC[C@@]1([C@@H]2O[C@@H]([C@H]3O[C@@](O)(CO)[C@H](C)C[C@@H]3C)C[C@@H]2C)CC[C@H]([C@]2(C)CC[C@]3(C[C@H](O)[C@@H](C)[C@@H]([C@@H](C)[C@@H](OC)[C@H](C)C(=O)O)O3)O2)O1` [Monensin]: the MIC in experiment [1] (setting [7]) was 6.4 µg/mL (≈ 9.54 µM); in experiment [2] (setting [8]) it was 3 µg/mL (≈ 4.47 µM); in experiment [3] (setting [9]), 4.2 µg/mL (≈ 6.26 µM); in experiment [4] it was 4 µg/mL.

Take Zinc bacitracin: the MIC in experiment [2] (setting [12]) is 9.2 µg/mL.

Turning to Flavomycin, the results for the MIC in experiment [1] (setting [11]) and in experiment [2] (setting [12]) were 0.25 µg/mL and 0.12 µg/mL, respectively.

As for Avoparcin, the figures for the MIC in experiment [1] (setting [11]) and in experiment [2] (setting [12]) were 32.0 µg/mL and 64.0 µg/mL, respectively.

As to `CC[C@H]1OC(=O)[C@H](C)[C@@H](O[C@H]2C[C@@](C)(OC)[C@@H](O)[C@H](C)O2)[C@H](C)[C@@H](O[C@@H]2O[C@H](C)C[C@H](N(C)C)[C@H]2O)[C@](C)(O)C[C@@H](C)C(=O)[C@H](C)[C@@H](O)[C@]1(C)O` [Erythromycin], the MIC in experiment [1] (setting [7]) is 8 µg/mL (≈ 10.9 µM).
